Assay results from patent US9878991B2, “TRPV1 antagonists including dihydroxy substituent and uses thereof” (Purdue Pharma L.P., priority 2007, dated 2018).

How the values were obtained:
[1] = tested on: TRPV1 receptor-mediated pain; assay: Capsaicin-induced eye wipe test; type: in vivo; conditions: rat; for eye wipe value: pre-administration value 24
Protocol: Each experiment uses rats weighing between 200-260 g at the start of the experiment. The rats are group-housed and have free access to food and water at all times, except prior to oral administration of a compound of formula I when food is removed for 16 hours before dosing. A control group acts as a comparison to rats treated with a compound of formula I. The control group is administered the carrier for the compound of formula I. The volume of carrier administered to the control group is the same as the volume of carrier and compound of formula I administered to the test group.
To assess the effect of compounds of formula I on TRPV1 receptor-mediated pain, the capsaicin-induced eye wipe test is used (N. R. Gavva et al., “AMG 9810 [(E)-3-(4-t-Butylphenyl)-N-(2,3-dihydrobenzo[b][1,4]dioxin-6-yl)acrylamide], a Novel Vanilloid Receptor 1 (TRPV1) Antagonist with Antihyperalgesic Properties”, J. Pharmacol. Exp. Ther. 313:474-484 (2005)). The eye wipe test is a reliable high-throughput test of the effect of TRPV1 antagonists. Rats are given a single injection of 1, 3, 10 or 30 mg/kg of either a compound of formula I; 30 mg/kg of a control selected from Celebrex, indomethacin or naproxen; or carrier. At 1, 3 or 5 hours after drug administration, 3 μL of a 100 μM capsaicin solution (in 10% EtOH/PBS) is instilled in one eye of each animal with a pipette. The number of forelimb movements (touching or wiping of the capsaicin-treated eye) are counted during a 2 minute period following instillation of capsaicin into the eye.

[2] = Plasma concentration after administration to an animal; type: in vivo

maximum plasma concentration relative to the maximum for compound 200 [2] [times] | SMILES | eye wipe value ([1]; 1 hour after administration) | decrease of eye wipes relative to pre-administration value ([1]; 3 hours after administration) [%] | eye wipe value ([1]; 3 hours after administration) | decrease of eye wipes relative to pre-administration value ([1]; 5 hours after administration) [%] | eye wipe value ([1]; 5 hours after administration)
– | O=C(Nc1ccc(C(F)(F)F)cc1)N1CCC(F)(c2ncc([C@H](O)CO)cc2Cl)CC1 [Compound N1, (S)-4-(3-chloro-5-(1,2-dihydroxyethyl)pyridin-2-yl)-4-fluoro-N-(4-(trifluoromethyl)phenyl)piperidine-1-carboxamide] | 3 | 96 | 1 | 92 | 2
5.3 | CC(O)(CO)c1cnc(C2=CCN(C(=O)Nc3ccc(C(F)(F)F)cc3)CC2)c(Cl)c1 (stereo not shown) [Compound R6] | – | – | – | – | –
2.5 | O=C(Nc1ccc(C(F)(F)F)cc1)N1CC=C(c2ncc([C@H](O)CO)cc2Cl)CC1 [Compound Z1, (S)-3-Chloro-5-(1,2-dihydroxy-ethyl)-3′,6′-dihydro-2′H-[2,4′]bipyridinyl-1′-carboxylic acid (4-trifluoromethyl-phenyl)amide] | – | – | – | – | –
